Results taken from ChEMBL document CHEMBL4364276, “Discovery of 4-phenyl-2H-benzo[b][1,4]oxazin-3(4H)-one derivatives as potent and orally active PI3K/mTOR dual inhibitors” (Eur J Med Chem, 2019).

Columns and labels:
[1] = biological target: Non-receptor tyrosine-protein kinase TYK2 (Homo sapiens) (UniProt P29597); assay: Inhibition of human TYK2 at 100 nM using KKSRGDYMTMQIG as substrate by [gamma-33P]-ATP assay
[2] = biological target: DNA-dependent protein kinase catalytic subunit (Homo sapiens) (UniProt P78527); assay: Inhibition of human DNAPK at 100 nM using EPPLSQEAFADLWKK as substrate by [gamma-33P]-ATP assay
[3] = biological target: Death-associated protein kinase 2 (Homo sapiens) (UniProt Q9UIK4); assay: Inhibition of human DAPK2 at 100 nM using KKLNRTLSFAEPG as substrate by [gamma-33P]-ATP assay
Sequence of Death-associated protein kinase 2 (Homo sapiens) (Q9UIK4 whole entry, looked up): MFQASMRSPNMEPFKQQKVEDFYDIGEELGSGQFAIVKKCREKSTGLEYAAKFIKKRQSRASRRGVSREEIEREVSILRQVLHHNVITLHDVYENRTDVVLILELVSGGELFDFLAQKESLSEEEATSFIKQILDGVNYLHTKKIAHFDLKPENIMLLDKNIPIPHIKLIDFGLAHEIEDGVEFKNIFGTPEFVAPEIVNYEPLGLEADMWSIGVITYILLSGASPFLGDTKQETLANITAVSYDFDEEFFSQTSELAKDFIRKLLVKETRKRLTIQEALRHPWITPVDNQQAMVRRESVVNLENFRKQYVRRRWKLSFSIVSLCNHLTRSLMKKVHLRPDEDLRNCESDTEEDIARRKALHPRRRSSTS

[4] = biological target: Serine/threonine-protein kinase N1 (Homo sapiens) (UniProt Q16512); assay: Inhibition of human PKN1 at 100 nM using KKLNRTLSVA as substrate by [gamma-33P]-ATP assay
[5] = biological target: Serine/threonine-protein kinase 32C (Homo sapiens) (UniProt Q86UX6); assay: Inhibition of human STK32C at 100 nM using MBP as substrate by [gamma-33P]-ATP assay
Sequence of Serine/threonine-protein kinase 32C (Homo sapiens) (Q86UX6 whole entry): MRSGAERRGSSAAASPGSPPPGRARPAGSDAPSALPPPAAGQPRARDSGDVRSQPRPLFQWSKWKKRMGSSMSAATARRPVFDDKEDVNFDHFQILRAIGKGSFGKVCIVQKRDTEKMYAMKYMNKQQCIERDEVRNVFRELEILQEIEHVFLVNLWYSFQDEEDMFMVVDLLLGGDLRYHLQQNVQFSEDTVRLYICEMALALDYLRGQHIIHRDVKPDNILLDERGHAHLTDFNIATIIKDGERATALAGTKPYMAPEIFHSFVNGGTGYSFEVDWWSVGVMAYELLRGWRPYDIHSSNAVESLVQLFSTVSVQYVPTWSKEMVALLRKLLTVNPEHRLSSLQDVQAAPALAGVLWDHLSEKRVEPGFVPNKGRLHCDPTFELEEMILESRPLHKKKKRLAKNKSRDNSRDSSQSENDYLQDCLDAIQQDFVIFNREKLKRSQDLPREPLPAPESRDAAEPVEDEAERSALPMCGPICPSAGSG

[6] = biological target: Eukaryotic translation initiation factor 2-alpha kinase 1 (Homo sapiens) (UniProt Q9BQI3); assay: Inhibition of human EIF2AK1 at 100 nM using MBP as substrate by [gamma-33P]-ATP assay
[7] = biological target: Receptor tyrosine-protein kinase erbB-2 (Homo sapiens) (UniProt P04626); assay: Inhibition of human ERBB2 at 100 nM using poly[Glu:Tyr] (4:1) as substrate by [gamma-33P]-ATP assay
[8] = biological target: Vascular endothelial growth factor receptor 1 (Homo sapiens) (UniProt P17948); assay: Inhibition of human FLT1 at 100 nM using poly[Glu:Tyr] (4:1) as substrate by [gamma-33P]-ATP assay
[9] = biological target: Serine/threonine-protein kinase LATS2 (Homo sapiens) (UniProt Q9NRM7); assay: Inhibition of human LATS2 at 100 nM using KKRNRRLSVA as substrate by [gamma-33P]-ATP assay
Sequence of Serine/threonine-protein kinase LATS2 (Homo sapiens) (Q9NRM7 whole entry): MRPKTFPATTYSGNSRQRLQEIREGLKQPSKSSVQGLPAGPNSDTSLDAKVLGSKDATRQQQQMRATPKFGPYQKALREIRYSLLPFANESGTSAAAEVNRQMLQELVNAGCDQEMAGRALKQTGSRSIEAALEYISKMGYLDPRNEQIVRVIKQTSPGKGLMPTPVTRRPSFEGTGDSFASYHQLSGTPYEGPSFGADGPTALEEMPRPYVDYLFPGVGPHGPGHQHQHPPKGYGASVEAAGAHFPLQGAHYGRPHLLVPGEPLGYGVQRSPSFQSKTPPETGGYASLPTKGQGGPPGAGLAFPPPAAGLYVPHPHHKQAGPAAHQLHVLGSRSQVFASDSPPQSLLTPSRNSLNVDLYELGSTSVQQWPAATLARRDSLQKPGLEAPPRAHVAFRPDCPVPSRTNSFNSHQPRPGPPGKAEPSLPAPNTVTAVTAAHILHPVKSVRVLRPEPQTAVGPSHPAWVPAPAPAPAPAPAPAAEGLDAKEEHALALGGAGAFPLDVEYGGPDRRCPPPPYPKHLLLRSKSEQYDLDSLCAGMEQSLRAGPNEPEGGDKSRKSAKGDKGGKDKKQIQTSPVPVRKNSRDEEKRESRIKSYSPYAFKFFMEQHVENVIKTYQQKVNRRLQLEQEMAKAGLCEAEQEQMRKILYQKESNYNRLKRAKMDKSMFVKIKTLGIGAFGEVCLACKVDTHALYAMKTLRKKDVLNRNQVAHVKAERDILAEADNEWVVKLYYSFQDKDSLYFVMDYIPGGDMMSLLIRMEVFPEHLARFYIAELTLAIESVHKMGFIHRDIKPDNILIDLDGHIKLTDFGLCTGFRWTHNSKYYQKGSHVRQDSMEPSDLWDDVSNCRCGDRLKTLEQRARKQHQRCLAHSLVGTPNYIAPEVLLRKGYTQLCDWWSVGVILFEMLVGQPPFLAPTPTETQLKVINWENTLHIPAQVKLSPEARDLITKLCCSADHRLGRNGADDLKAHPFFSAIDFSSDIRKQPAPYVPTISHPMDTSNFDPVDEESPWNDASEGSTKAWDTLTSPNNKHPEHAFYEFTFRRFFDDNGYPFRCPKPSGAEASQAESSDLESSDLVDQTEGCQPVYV

[10] = biological target: Insulin receptor (Homo sapiens) (UniProt P06213); assay: Inhibition of human IR at 100 nM using poly[Glu:Tyr] (4:1) as substrate by [gamma-33P]-ATP assay
[11] = biological target: Serine/threonine-protein kinase TAO3 (Homo sapiens) (UniProt Q9H2K8); assay: Inhibition of human TAOK3 at 100 nM using MBP as substrate by [gamma-33P]-ATP assay
[12] = biological target: Serine/threonine-protein kinase Nek3 (Homo sapiens) (UniProt P51956); assay: Inhibition of human NEK3 at 100 nM using MBP as substrate by [gamma-33P]-ATP assay
[13] = biological target: Serine/threonine-protein kinase PAK 2 (Homo sapiens) (UniProt Q13177); assay: Inhibition of human PAK2 at 100 nM using RRRLSFAEPG as substrate by [gamma-33P]-ATP assay
[14] = biological target: ALK tyrosine kinase receptor (Homo sapiens) (UniProt Q9UM73); assay: Inhibition of human ALK at 100 nM using poly[Glu:Tyr] (4:1) as substrate by [gamma-33P]-ATP assay
[15] = biological target: AMP-activated protein kinase (AMPK) alpha-1/beta-1/gamma-1 (Homo sapiens) (UniProt P54619+Q9Y478+Q13131); assay: Inhibition of human AMPK (A1/B1/G1) at 100 nM using HMRSAMSGLHLVKRR as substrate by [gamma-33P]-ATP assay; type: protein-complex assay
[16] = biological target: Casein kinase II subunit alpha' (Homo sapiens) (UniProt P19784); assay: Inhibition of human CK2A2 at 100 nM using RRRDDDSDDD as substrate by [gamma-33P]-ATP assay
[17] = biological target: RAC-beta serine/threonine-protein kinase (Homo sapiens) (UniProt P31751); assay: Inhibition of human AKT2 at 100 nM using KGSGSGRPRTSSFAEG as substrate by [gamma-33P]-ATP assay
Sequence of RAC-beta serine/threonine-protein kinase (Homo sapiens) (P31751 whole entry): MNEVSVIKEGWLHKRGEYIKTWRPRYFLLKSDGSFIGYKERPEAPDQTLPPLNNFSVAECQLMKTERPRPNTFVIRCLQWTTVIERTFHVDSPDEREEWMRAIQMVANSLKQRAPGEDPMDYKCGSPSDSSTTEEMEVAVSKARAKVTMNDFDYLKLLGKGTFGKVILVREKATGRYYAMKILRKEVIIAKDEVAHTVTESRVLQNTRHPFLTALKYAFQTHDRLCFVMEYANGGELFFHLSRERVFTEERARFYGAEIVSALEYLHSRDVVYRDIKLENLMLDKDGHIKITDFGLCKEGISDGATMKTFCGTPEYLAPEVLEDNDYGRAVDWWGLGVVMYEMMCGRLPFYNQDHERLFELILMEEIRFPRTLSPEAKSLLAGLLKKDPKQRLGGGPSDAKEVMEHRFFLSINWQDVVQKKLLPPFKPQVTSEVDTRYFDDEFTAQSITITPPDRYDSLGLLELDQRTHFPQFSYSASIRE

[18] = biological target: Serine/threonine-protein kinase greatwall (Homo sapiens) (UniProt Q96GX5); assay: Inhibition of human MASTL at 100 nM using ERK2 as substrate by [gamma-33P]-ATP assay
[19] = system: HeLa; assay: Inhibition of colony formation in human HeLa cells at > 5 uM incubated for 2 weeks crystal violet staining based assay; type: functional
[20] = biological target: Homeodomain-interacting protein kinase 4 (Homo sapiens) (UniProt Q8NE63); assay: Inhibition of human HIPK4 at 100 nM using MBP as substrate by [gamma-33P]-ATP assay
[21] = biological target: Calcium/calmodulin-dependent protein kinase type II subunit delta (Homo sapiens) (UniProt Q13557); assay: Inhibition of human CAMK2D at 100 nM using KKLNRTLSFAEPG as substrate by [gamma-33P]-ATP assay
Sequence of Calcium/calmodulin-dependent protein kinase type II subunit delta (Homo sapiens) (Q13557 whole entry, the tested form may be a part, canonical isoform): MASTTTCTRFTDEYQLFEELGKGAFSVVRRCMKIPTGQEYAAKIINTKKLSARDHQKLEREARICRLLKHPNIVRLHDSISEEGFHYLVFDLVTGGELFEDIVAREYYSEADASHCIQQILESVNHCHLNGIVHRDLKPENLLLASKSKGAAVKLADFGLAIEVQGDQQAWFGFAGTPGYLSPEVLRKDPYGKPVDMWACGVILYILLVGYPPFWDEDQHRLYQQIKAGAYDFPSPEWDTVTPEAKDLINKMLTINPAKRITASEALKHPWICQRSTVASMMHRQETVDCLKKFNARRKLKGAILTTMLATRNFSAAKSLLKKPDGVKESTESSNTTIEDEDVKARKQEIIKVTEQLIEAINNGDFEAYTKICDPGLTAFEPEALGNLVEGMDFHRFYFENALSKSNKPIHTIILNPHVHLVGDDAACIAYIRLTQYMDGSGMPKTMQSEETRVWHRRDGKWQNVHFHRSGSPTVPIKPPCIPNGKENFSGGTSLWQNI

[22] = biological target: Phosphatidylinositol 4,5-bisphosphate 3-kinase catalytic subunit alpha isoform (Homo sapiens, UniProt P42336); assay: Inhibition of recombinant human full length N-terminal GST-tagged PI3Kalpha (1 to 1068 residues)/PIK3R1 (1 to 724 residues) expressed in baculovirus expression system using PIP2 as substrate incubated for 1 hr by ADP-Glo assay
[23] = biological target: Serine/threonine-protein kinase WNK1 (Homo sapiens) (UniProt Q9H4A3); assay: Inhibition of human WNK1 at 100 nM using MBP as substrate by [gamma-33P]-ATP assay
[24] = biological target: Mitogen-activated protein kinase kinase kinase 19 (Homo sapiens) (UniProt Q56UN5); assay: Inhibition of human YSK4 at 100 nM using MBP as substrate by [gamma-33P]-ATP assay
[25] = biological target: Myotonin-protein kinase (Homo sapiens) (UniProt Q09013); assay: Inhibition of human DMPK at 100 nM using KKRNRRLSVA as substrate by [gamma-33P]-ATP assay
[26] = biological target: Activin receptor type-1-like (Homo sapiens) (UniProt P37023); assay: Inhibition of human ALK1 at 100 nM using casein as substrate by [gamma-33P]-ATP assay
Sequence of Activin receptor type-1-like (Homo sapiens) (P37023 whole entry): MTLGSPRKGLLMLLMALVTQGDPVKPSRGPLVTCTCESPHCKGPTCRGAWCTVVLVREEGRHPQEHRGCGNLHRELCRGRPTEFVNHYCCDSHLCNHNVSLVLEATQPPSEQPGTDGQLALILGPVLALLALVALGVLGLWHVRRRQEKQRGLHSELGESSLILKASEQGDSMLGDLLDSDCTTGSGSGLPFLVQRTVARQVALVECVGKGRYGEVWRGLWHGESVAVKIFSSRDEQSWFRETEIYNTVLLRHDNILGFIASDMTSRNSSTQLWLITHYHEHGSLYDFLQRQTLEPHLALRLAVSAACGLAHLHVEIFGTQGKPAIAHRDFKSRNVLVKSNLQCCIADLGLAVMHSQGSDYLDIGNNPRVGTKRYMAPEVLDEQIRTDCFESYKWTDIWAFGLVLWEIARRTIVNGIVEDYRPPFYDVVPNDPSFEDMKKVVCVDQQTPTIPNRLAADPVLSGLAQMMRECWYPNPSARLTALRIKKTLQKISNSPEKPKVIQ

[27] = biological target: Serine/threonine-protein kinase PAK 3 (Homo sapiens) (UniProt O75914); assay: Inhibition of human PAK3 at 100 nM using RRRLSFAEPG as substrate by [gamma-33P]-ATP assay
Sequence of Serine/threonine-protein kinase PAK 3 (Homo sapiens) (O75914 whole entry, looked up): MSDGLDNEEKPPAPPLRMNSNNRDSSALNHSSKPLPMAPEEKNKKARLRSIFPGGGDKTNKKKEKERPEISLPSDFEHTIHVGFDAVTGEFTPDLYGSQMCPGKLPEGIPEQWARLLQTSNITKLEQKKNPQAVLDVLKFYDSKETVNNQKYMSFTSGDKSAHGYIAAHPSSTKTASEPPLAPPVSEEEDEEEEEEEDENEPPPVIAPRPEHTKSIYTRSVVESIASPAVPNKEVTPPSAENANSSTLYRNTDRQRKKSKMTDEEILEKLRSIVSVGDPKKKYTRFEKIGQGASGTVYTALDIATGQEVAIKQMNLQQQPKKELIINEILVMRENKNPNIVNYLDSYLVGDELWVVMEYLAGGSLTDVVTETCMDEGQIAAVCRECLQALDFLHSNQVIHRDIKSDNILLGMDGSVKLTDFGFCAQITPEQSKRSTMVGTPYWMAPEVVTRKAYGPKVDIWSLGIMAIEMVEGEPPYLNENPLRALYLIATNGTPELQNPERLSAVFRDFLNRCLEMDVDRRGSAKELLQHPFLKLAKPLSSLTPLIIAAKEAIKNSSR

[28] = biological target: Tyrosine-protein kinase receptor UFO (Homo sapiens) (UniProt P30530); assay: Inhibition of human AXL at 100 nM using EAIYAAPFAKKK as substrate by [gamma-33P]-ATP assay
Sequence of Tyrosine-protein kinase receptor UFO (Homo sapiens) (P30530 whole entry): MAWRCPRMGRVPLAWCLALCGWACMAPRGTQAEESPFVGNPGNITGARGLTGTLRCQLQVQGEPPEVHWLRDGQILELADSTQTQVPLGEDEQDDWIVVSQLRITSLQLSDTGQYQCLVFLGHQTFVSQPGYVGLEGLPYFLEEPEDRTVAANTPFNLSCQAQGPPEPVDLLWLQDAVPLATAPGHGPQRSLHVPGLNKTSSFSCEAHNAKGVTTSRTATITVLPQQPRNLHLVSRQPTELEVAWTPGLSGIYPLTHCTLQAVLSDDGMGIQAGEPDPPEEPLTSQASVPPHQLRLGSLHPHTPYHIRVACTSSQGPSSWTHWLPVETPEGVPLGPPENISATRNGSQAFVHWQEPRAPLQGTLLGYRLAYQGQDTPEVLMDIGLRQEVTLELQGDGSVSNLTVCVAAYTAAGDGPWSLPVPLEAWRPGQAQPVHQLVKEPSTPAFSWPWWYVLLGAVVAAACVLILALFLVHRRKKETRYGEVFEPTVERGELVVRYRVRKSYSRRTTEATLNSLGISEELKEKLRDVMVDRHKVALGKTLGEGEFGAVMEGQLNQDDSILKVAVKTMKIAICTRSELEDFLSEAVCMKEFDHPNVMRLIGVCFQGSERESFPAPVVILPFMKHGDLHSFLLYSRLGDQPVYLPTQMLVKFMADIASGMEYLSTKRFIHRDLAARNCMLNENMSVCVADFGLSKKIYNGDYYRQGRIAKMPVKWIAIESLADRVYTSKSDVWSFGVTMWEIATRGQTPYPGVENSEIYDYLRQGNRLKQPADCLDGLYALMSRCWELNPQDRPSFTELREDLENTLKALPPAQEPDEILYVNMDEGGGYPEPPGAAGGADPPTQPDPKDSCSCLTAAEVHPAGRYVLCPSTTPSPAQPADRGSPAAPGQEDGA

[29] = biological target: Tyrosine-protein kinase Tec (Homo sapiens) (UniProt P42680); assay: Inhibition of human TEC at 100 nM using poly[Glu:Tyr] (4:1) as substrate by [gamma-33P]-ATP assay
[30] = biological target: CDK9/Cyclin K (Homo sapiens) (UniProt P50750+O75909); assay: Inhibition of human CDK9/cyclin-K at 100 nM using KTFCGTPEYLAPEVRREPRILSEEEQEMFRDFDYIADWC as substrate by [gamma-33P]-ATP assay; type: protein-complex assay

Compound: COc1ccc(N2C(=O)COc3ccc(-c4cnc(OC)c(NS(=O)(=O)c5ccc(F)cc5)c4)cc32)cc1
- inhibition [1]: 11.3%
- inhibition [2]: 74.4%
- inhibition [3]: -3.64%
- inhibition [4]: 16.8%
- inhibition [5]: -6.39%
- inhibition [6]: 3.42%
- inhibition [7]: 3.37%
- inhibition [8]: 3.08%
- inhibition [9]: 10.9%
- inhibition [10]: 6.82%
- inhibition [11]: 6.13%
- inhibition [12]: 10.8%
- inhibition [13]: 10.4%
- inhibition [14]: 2.94%
- inhibition [15]: -4.91%
- inhibition [16]: 19.8%
- inhibition [17]: 28.1%
- inhibition [18]: -1.96%
- inhibition (INH) [19]: <=100%
- inhibition [20]: 5.1%
- inhibition [21]: 22.6%
- IC50 [22]: 630 pM
- inhibition [23]: 13.9%
- inhibition [24]: 3.44%
- inhibition [25]: -4.58%
- inhibition [26]: -8.35%
- inhibition [27]: 4.51%
- inhibition [28]: 25.4%
- inhibition [29]: -4.06%
- inhibition [30]: 9.26%
